Patent publication US9062088B2, “CDK-inhibiting pyrrolopyrimidine carboxamide derivative or pharmaceutically acceptable salt thereof, and pharmaceutical composition containing the same as active ingredient for preventing or treating hepatocellular carcinoma” (SNU R&DB Foundation, priority 2010, dated 2015)
Where “and” joins values, the source holds several entries; their conditions need not be identical. Equal entries are not always repeated.

Experiments:
[1] = tested on: Mcl-1, survivin, XIAP mRNA; assay: RT-PCR of Mcl-1, survivin, XIAP mRNA in SNU-354 cells; type: cell-based, human; conditions: FIG. 14
Description: Total RNA was extracted from SNU-354 cells treated with the compound of Example 2 according to the conventional method. For reverse transcription, 5 μg of the extracted RNA and M-MLV reverse transcriptase (Promega Corporation, WI, USA) were used. Reverse Transcription was induced at 37° C. for 1 hour, followed by further reaction at 95° C. for 5 minutes. For PCR, 5 μl of cDNA obtained from the reverse transcription was used as a template and Taq DNA polymerase was used. Total reaction volume was 50 μl. PCR was performed as follows; predenaturation at 95° C. for 5 minutes, denaturation at 95° C. for 1 minute, annealing at 56° C. for 1 minute, polymerization at 72° C. for 1 minute, 30 cycles from denaturation to polymerization, and final extension at 72° C. for 10 minutes. After PCR, the PCR products were analyzed by electrophoresis on 1% agarose gel. The forward primer for Mcl-1 was 5′-CGGTAATCGGACTCAACCTC-3′ (SEQ ID NO: 1) and the reverse primer was 5′-CCT CCT TCT CCG TAG CCA A-3′ (SEQ ID NO: 2). The forward primer for XIAP was 5′-AGTGGTAGTCCTGTTTCAGCATCA-3′ (SEQ ID NO: 3) and the reverse primer was 5′-CCG CAC GGT ATC TCC TTC A-3′ (SEQ ID NO: 4). The forward primer for survivin was 5′-TGC CTG GCA GCC CTT TC-3′ (SEQ ID NO: 5) and the reverse primer was 5′-CCTCCAAGAAGGGCCAGTTC-3′ (SEQ ID NO. 6). […]

[2] = Body weight of xenograft mice; type: in vivo, nude mice; conditions: 4 mg/kg and 20 mg/kg intraperitoneal; FIG. 21
Description: (§1) Male nude mice at 5˜6 weeks were purchased from Central Lab. Animal Inc. (Republic of Korea). The mice were raised in the test animal laboratory at College of Pharmacy, Seoul National University. All the experiments with test animals were performed by the protocol set by Institute of Laboratory Animal Resources, Seoul National University. 1×10^7 cells of the human hepatocellular carcinoma cell line SNU-354 were suspended in 200 μl of PBS, which was injected into the right front paw of the mouse by subcutaneous injection, followed by observation until the xenograft tumor grew to 100±30 mm^3. The mice having tumors reaching the proper size were divided into three groups (n=8). One of the groups was used as the control (treated with vehicle) and the other two groups were treated with the compound of Example 2 at the concentrations of 4 mg/kg and 20 mg/kg respectively, once a day for 3 weeks (5 times/week) by intraperitoneal injection. The control group was treated with 5% ethanol and 30% polyethylene glycol 200 (Fluka, Netherlands). The administration schedule was marked on data. Tumor size, body weight and other conditions of the animal were observed every day until the tumor size reached 2000 mm^3. The tumor size was calculated by V=a×b×c×π/6 (a=long axis of the tumor, b=short axis of the tumor, c=height of the tumor). 33 days after the treatment, the mice were sacrificed. […]

[3] = molecular target: T1, Cdk1/cyclin B (Homo sapiens, UniProt P06493); assay: In vitro kinase activity assay, histone H1 phosphorylation by Cdk1/cyclin B; type: biochemical; conditions: for Phosphorylation (%) Cdk1: 0 nM = 100%
T1 construct: purchased Upstate
Description: (§2) To kinase assay buffer (50 mM Tris (pH 7.4), 10 mM magnesium chloride, 1 mM EGTA, 40 mM β-glycerophosphate, 0.1 mM Na3VO4, 1 mM DTT, 0.1 μg/mL leupeptin, 0.1 μg/mL pepstatin A, 0.1 μg/mL antipain and 1 mM phenylmethylsulfonyl fluoride) were added 5 μg histone H1 as a substrate, 20 ng Cdk1/cyclin B or 40 ng Cdk2/cyclin A recombinant protein (Upstate, NY, USA) as an enzyme, 2.5 μCi [γ-32P]ATP, and 100 μM MgAc/ATP. The total reaction volume was adjusted to 50 μl. The compound of Example 2 was added to the reaction mixture, followed by inducing kinase reaction at 30° C. for 20 minutes. Upon completion of the reaction, the reaction mixture proceeded to electrophoresis on 12% SDS-polyacrylamide gel. Phosphorylation levels of Cdk1 and Cdk2 over the concentrations of the compound of Example 2 were confirmed by autoradiography, and the results are shown in FIG. 1, FIG. 2, and Table 1.
(§3) The intensity of bands was analyzed by densitometry (GS-800, Bio-Rad).

[4] = molecular target: T2, Cdk2/cyclin A (Homo sapiens, UniProt P24941); assay: In vitro kinase activity assay, histone H1 phosphorylation by Cdk2/cyclin A; type: biochemical; conditions: for Phosphorylation (%) Cdk2: 0 nM = 100%
T2 construct: purchased Upstate
Description: as §2, §3

[5] = tested on: SNU-354 xenografted tumor; assay: SNU-354 cancer xenograft, tumor growth; type: in vivo; conditions: 5 times/week for 3 weeks, nude mice
Description: as §1

[6] = tested on: SNU-354 cells; assay: Flow cytometry, sub G1 ratio change (Experimental Example 3); type: cell-based, human; conditions: 10 μM, 24 hours, vehicle = 1.0
Description: SNU-354 cells were seeded in a 90 mm dish, to which vehicle and the compounds of Examples 2˜6 were treated at the concentration of 10 μM each for 24 hours. The cells were collected and washed with cold PBS, followed by reaction in 500 μl of cold 70% ethanol at 4° C. for overnight to fix the cells. The cells were washed with 500 μl of PBS three times, followed by reaction with 500 μl of PBS containing 50 μg/mL propidium iodide (P1) and 50 μl of 1 mg/mL RNAse A at room temperature for 30 minutes in the darkness. Fluorescence of the P1 stained cell was measured by using FACS caliber flow cytometer and cell quest program (Becton Dickinson Immunocytometry Systems, CA, USA). Sub G1 ratio changes of SNU-354 cells induced by the compounds were measured by FACS analysis.

T1 sequence (P06493 whole entry): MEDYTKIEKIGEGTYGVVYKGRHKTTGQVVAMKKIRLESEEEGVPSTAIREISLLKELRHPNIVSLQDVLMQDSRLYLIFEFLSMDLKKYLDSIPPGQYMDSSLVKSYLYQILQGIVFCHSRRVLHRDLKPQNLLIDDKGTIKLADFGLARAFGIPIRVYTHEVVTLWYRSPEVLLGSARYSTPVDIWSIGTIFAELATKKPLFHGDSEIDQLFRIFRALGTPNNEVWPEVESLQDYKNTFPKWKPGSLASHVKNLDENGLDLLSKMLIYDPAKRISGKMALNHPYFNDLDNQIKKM
T1 sequence (P14635 whole entry partner): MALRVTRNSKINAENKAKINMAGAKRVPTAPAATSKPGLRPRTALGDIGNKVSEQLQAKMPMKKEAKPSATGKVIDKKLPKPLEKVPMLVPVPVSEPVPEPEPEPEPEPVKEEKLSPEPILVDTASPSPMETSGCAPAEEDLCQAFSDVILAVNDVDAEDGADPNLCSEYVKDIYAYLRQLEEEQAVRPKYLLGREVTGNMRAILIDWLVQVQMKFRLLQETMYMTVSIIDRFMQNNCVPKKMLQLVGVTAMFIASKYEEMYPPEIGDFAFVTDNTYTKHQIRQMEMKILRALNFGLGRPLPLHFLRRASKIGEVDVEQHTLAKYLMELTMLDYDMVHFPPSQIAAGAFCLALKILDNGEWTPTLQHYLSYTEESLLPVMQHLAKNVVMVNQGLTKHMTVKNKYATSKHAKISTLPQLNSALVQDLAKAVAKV

SMILES: CC(C)C(=O)OC[C@@H]1O[C@H](n2cnc(N)c3c(C(N)=O)c(Br)nc2-3)[C@H](O)[C@H]1O [Example 2, ((2S,3R,4R,5S)-5-(4-amino-6-bromo-5-carbamoyl-1H-pyrrolo[2,3-d]pyrimidin-1-yl)-3,4-dihydroxy-tetrahydrofuran-2-yl)methyl isobutyrate]
- Mcl-1, survivin and XIAP mRNA [1]: decrease of mRNA
- weight change of test animals [2]: no weight change
- Phosphorylation (%) Cdk1 ([3]; 10 nM): 100% and 99.4%
- Phosphorylation (%) Cdk1 ([3]; 20 nM): 92.2%
- Phosphorylation (%) Cdk1 ([3]; 40 nM): 74.1%
- Phosphorylation (%) Cdk1 ([3]; 50 nM): 50%
- Phosphorylation (%) Cdk1 ([3]; 60 nM): 41.6%
- Phosphorylation (%) Cdk1 ([3]; 80 nM): 15.3%
- Phosphorylation (%) Cdk1 ([3]; 100 nM): 4.3%
- IC50 ([3]; histone H1 phosphorylation): 50 nM
- Phosphorylation (%) Cdk2 ([4]; 10 nM): 86.5%
- Phosphorylation (%) Cdk2 ([4]; 20 nM): 75.0%
- Phosphorylation (%) Cdk2 ([4]; 40 nM): 59.0%
- Phosphorylation (%) Cdk2 ([4]; 50 nM): 50%
- Phosphorylation (%) Cdk2 ([4]; 60 nM): 43.0%
- Phosphorylation (%) Cdk2 ([4]; 80 nM): 39.2%
- Phosphorylation (%) Cdk2 ([4]; 100 nM): 4.5%
- IC50 ([4]; histone H1 phosphorylation): 50 nM
- growth of the tumor reduced at average, compared with the control ([5]; 4 mg/kg/day intraperitoneal): 15%
- growth of the tumor reduced at average, compared with the control ([5]; 20 mg/kg/day intraperitoneal): 47%
- sub G1 ratio change [6]: 5.9
